Results reported in patent publication US9920032B2, “Heterocyclic compounds useful as pim kinase inhibitors” (Incyte Corporation, priority 2015, dated 2018).

How the values were obtained:
Type in all cases: biochemical
Pim-1 = Pim-1 (Homo sapiens (Human), UniProt P11309); experiment: Pim-1 kinase assay; settings: 1 mM ATP; read-out: PIM1 IC50
Procedure: (§1) Pim-1 and Pim-3 kinase assays—20 μL reactions were run in white 384 well polystyrene plates dotted with 0.8 μL compound/DMSO in the assay buffer (50 mM Tris, pH 7.5, 0.01% Tween-20, 5 mM mgCl2, 0.01% BSA, 5 mM DTT), containing 0.05 μM Biotin-labeled BAD peptide substrate (AnaSpec 62269), 1 mM ATP, and 2.5 pM (Pim-1, Invitrogen PV3503) or 1.25 pM (Pim-3, Millipore 14-738) enzyme for 1 h at 25° C. Reactions were stopped by addition of 10 μL STOP Buffer (150 mM Tris, pH=7.5, 150 mM NaCl, 75 mM EDTA, 0.01% Tween-20, 0.3% BSA,) supplemented with Phospho-Bad (Ser112) Antibody (Cell Signaling 9291) diluted 666-fold, and Streptavidin donor beads (PerkinElmer 6760002) along with Protein-A acceptor beads (PerkinElmer 6760137) at […]. Supplementation of the STOP buffer with beads and stopping the reactions were done under reduced light. Prior to the stopping reactions STOP buffer with beads was preincubated for 1 h in the dark at room temperature. After stopping the reactions, plates were incubated for 1 h in the dark at room temperature before reading on a PHERAstar FS plate reader (BMG Labtech) under reduced light.

Pim-2 = Pim-2 (Homo sapiens (Human), UniProt Q9P1W9); experiment: Pim-2 kinase assay; settings: 1 mM ATP; read-out: PIM2 IC50
Procedure: Pim-2 kinase assay—20 μL reactions were run in white 384 well polystyrene plates dotted with 0.8 μL compound/DMSO in the assay buffer (50 mM Tris, pH 7.5, 0.01% Tween-20, 5 mM mgCl2, 0.01% BSA, 5 mM DTT), containing 0.05 μM Fluorescein-labeled CREBtide peptide substrate (Invitrogen PV3508), 1 mM ATP, and 1 nM enzyme (Invitrogen PV3649) for 2 h at 25° C. Reactions were stopped by addition of 10 μL TR-FRET Dilution Buffer (Invitrogen PV3574) with 30 mM EDTA and 1.5 nM LanthaScreen Tb-CREB pSer133 antibody (Invitrogen PV3566). After 30 min. incubation at room temperature, plates were read on a PHERAstar FS plate reader (BMG Labtech).

Pim-3 = Pim-3 (Homo sapiens (Human), UniProt Q86V86); experiment: Pim-3 kinase assay; settings: 1 mM ATP; read-out: PIM3 IC50
Procedure: as §1

Chain of Pim-2 (Q9P1W9 whole entry): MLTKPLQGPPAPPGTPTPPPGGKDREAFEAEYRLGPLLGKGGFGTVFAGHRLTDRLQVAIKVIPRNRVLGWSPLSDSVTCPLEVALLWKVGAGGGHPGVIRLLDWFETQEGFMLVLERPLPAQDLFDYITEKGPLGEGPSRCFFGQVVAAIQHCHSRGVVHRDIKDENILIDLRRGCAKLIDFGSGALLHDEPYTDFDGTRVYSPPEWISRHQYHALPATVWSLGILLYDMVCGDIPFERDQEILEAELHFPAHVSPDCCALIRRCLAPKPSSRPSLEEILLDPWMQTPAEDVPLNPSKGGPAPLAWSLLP
Chain of Pim-1 (P11309 whole entry): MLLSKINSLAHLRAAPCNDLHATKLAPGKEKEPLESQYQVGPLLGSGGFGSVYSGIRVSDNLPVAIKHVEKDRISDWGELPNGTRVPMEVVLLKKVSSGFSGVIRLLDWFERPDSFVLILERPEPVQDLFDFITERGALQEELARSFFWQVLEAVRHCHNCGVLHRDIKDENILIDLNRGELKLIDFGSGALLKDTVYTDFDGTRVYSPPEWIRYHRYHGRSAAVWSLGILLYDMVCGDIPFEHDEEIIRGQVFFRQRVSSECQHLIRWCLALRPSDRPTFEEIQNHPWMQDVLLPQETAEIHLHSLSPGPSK

Row | SMILES | IC50 (Pim-1) [nM] | IC50 (Pim-2) [nM] | IC50 (Pim-3) [nM]
1 | C[C@@H]1C[C@H](N)C[C@H](c2ccncc2NC(=O)c2ccc(F)c3cc(N4CCC[C@H]4C)nnc23)C1 [Example 95, N-{4-[(1R,3S,5S)-3-Amino-5-methylcyclohexyl]pyridin-3-yl}-5-fluoro-3-[(2R)-2-methylpyrrolidin-1-yl]cinnoline-8-carboxamide] | ≤ 10 | ≤ 100 | ≤ 10
2 | C[C@@H]1C[C@H](N)C[C@H](c2ccncc2NC(=O)c2ccc(F)c3cc(N4CCC[C@@H](F)C4)cnc23)C1 [Example 2, N-{4-[(1R,3S,5S)-3-Amino-5-methylcyclohexyl]pyridin-3-yl}-5-fluoro-3-[(3,R)-3-fluoropiperidin-1-yl]quinoline-8-carboxamide] | ≤ 10 | ≤ 100 | ≤ 10
3 | C[C@@H]1C[C@H](N)C[C@H](c2ccncc2NC(=O)c2ccc(F)c3cc(N4CCCN(C)S4(=O)=O)cnc23)C1 [Example 128, N-(4-((1R,3S,5S)-3-Amino-5-methylcyclohexyl)pyridin-3-yl)-5-fluoro-3-(6-methyl-1,1-dioxido-1,2,6-thiadiazinan-2-yl)quinoline-8-carboxamide] | ≤ 10 | ≤ 100 | ≤ 10
4 | C[C@@H]1C[C@H](N)C[C@H](c2ccncc2NC(=O)c2ccc(F)c3cc(N4CCC(O)CC4)cnc23)C1 [Example 44, N-(4-((1R,3S,5S)-3-Amino-5-methylcyclohexyl)pyridin-3-yl)-5-fluoro-3-(4-hydroxypiperidin-1-yl)quinoline-8-carboxamide] | ≤ 10 | 100 to 1000 | ≤ 10
5 | CCC1CCCCN1c1cnc2c(C(=O)Nc3cnccc3[C@@H]3C[C@H](C)C[C@H](N)C3)ccc(F)c2c1 (stereo partly drawn) [Example 57, N-(4-((1R,3S,5S)-3-Amino-5-methylcyclohexyl)pyridin-3-yl)-3-(2-ethylpiperidin-1-yl)-5-fluoroquinoline-8-carboxamide] | ≤ 10 | ≤ 100 | 10 to 50
6 | C[C@@H]1C[C@H](N)C[C@H](c2ccncc2NC(=O)c2ccc(F)c3cc(N(C)C4CCOC4)cnc23)C1 (stereo partly drawn) [Example 23, N-{4-[(1R,3S,5S)-3-Amino-5-methylcyclohexyl]pyridin-3-yl}-5-fluoro-3-[methyl(tetrahydrofuran-3-yl)amino]quinoline-8-carboxamide] | ≤ 10 | 100 to 1000 | ≤ 10
7 | C[C@@H]1C[C@H](N)C[C@H](c2ccncc2NC(=O)c2ccc(F)c3cc(N(C)c4ncccc4OC(F)F)cnc23)C1 [Example 139, N-(4-((1R,3S,5S)-3-Amino-5-methylcyclohexyl)pyridin-3-yl)-3-((3-(difluoromethoxy)pyridin-2-yl)(methyl)amino)-5-fluoroquinoline-8-carboxamide] | ≤ 10 | ≤ 100 | ≤ 10
8 | CO[C@H]1C[C@H](C)N(c2cnc3c(C(=O)Nc4cnccc4[C@@H]4C[C@H](C)C[C@H](N)C4)ccc(F)c3c2)C1 [Example 157, N-(4-((1R,3S,5S)-3-Amino-5-methylcyclohexyl)pyridin-3-yl)-5-fluoro-3-((2S,4S)-4-methoxy-2-methylpyrrolidin-1-yl)quinoline-8-carboxamide] | ≤ 10 | ≤ 100 | ≤ 10
9 | C[C@@H]1C[C@H](N)C[C@H](c2ccncc2NC(=O)c2ccc(F)c3cc(N4CC[C@H](O)[C@@H](F)C4)cnc23)C1 [Example 108, N-(4-((1R,3S,5S)-3-Amino-5-methylcyclohexyl)pyridin-3-yl)-5-fluoro-3-((3S,4S)-3-fluoro-4-hydroxypiperidin-1-yl)quinoline-8-carboxamide] | ≤ 10 | ≤ 100 | ≤ 10
10 | C[C@@H]1C[C@H](N)C[C@H](c2ccncc2NC(=O)c2ccc(F)c3cc(N4C5CCCC4COC5)cnc23)C1 [Example 106, N-(4-((1R,3S,5S)-3-Amino-5-methylcyclohexyl)pyridin-3-yl)-3-(3-oxa-9-azabicyclo[3.3.1]nonan-9-yl)-5-fluoroquinoline-8-carboxamide] | ≤ 10 | ≤ 100 | ≤ 10
11 | C[C@@H]1C[C@H](N)C[C@H](c2ccncc2NC(=O)c2ccc(F)c3cc(N(C)c4ccncc4F)cnc23)C1 [Example 145, N-(4-((1R,3S,5S)-3-Amino-5-methylcyclohexyl)pyridin-3-yl)-5-fluoro-3-((3-fluoropyridin-4-yl)(methyl)amino)quinoline-8-carboxamide] | ≤ 10 | ≤ 100 | ≤ 10
12 | CC1CCC1N(C)c1cnc2c(C(=O)Nc3cnccc3[C@@H]3C[C@H](C)C[C@H](N)C3)ccc(F)c2c1 (stereo partly drawn) [Example 147, N-(4-((1R,3S,5S)-3-Amino-5-methylcyclohexyl)pyridin-3-yl)-5-fluoro-3-(methyl(2-methylcyclobutyl)amino)quinoline-8-carboxamide] | ≤ 10 | ≤ 100 | ≤ 10
13 | C[C@@H]1C[C@H](N)C[C@H](c2ccncc2NC(=O)c2ccc(F)c3cc(N(C)c4ncccc4F)cnc23)C1 [Example 142, N-(4-((1R,3S,5S)-3-Amino-5-methylcyclohexyl)pyridin-3-yl)-5-fluoro-3-((3-fluoropyridin-2-yl)(methyl)amino)quinoline-8-carboxamide] | ≤ 10 | ≤ 100 | ≤ 10
14 | C[C@@H]1C[C@H](N)C[C@H](c2ccncc2NC(=O)c2ccc(F)c3cc(N4CC[C@@H](F)C4)cnc23)C1 [Example 6, N-{4-[(1R,3S,5S)-3-Amino-5-methylcyclohexyl]pyridin-3-yl}-5-fluoro-3-[(3R)-3-fluoropyrrolidin-1-yl]quinoline-8-carboxamide] | ≤ 10 | ≤ 100 | ≤ 10
15 | CC1CN(c2cnc3c(C(=O)Nc4cnccc4[C@@H]4C[C@H](C)C[C@H](N)C4)ccc(F)c3c2)C(C)CO1 (stereo partly drawn) [Example 35, N-(4-((1R,3S,5S)-3-Amino-5-methylcyclohexyl)pyridin-3-yl)-3-(2,5-dimethylmorpholino)-5-fluoroquinoline-8-carboxamide] | ≤ 10 | 1000 to 10000 | 10 to 50
16 | C[C@@H]1C[C@H](N)C[C@H](c2ccncc2NC(=O)c2ccc(F)c3cc(N(C)C4CCCC4C#N)cnc23)C1 (stereo partly drawn) [Example 140, N-(4-((1R,3S,5S)-3-Amino-5-methylcyclohexyl)pyridin-3-yl)-3-((2-cyanocyclopentyl)(methyl)amino)-5-fluoroquinoline-8-carboxamide] | ≤ 10 | ≤ 100 | ≤ 10
17 | COCCN1CCN(c2cnc3c(C(=O)Nc4cnccc4[C@@H]4C[C@H](C)C[C@H](N)C4)ccc(F)c3c2)CC1=O [Example 133, N-(4-((1R,3S,5S)-3-Amino-5-methylcyclohexyl)pyridin-3-yl)-5-fluoro-3-(4-(2-methoxyethyl)-3-oxopiperazin-1-yl)quinoline-8-carboxamide] | ≤ 10 | 100 to 1000 | ≤ 10
18 | CCOC1CN(c2cnc3c(C(=O)Nc4cnccc4[C@@H]4C[C@H](C)C[C@H](N)C4)ccc(F)c3c2)C1 [Example 122, N-(4-((1R,3S,5S)-3-Amino-5-methylcyclohexyl)pyridin-3-yl)-3-(3-ethoxyazetidin-1-yl)-5-fluoroquinoline-8-carboxamide] | ≤ 10 | ≤ 100 | ≤ 10
19 | C[C@@H]1C[C@H](N)C[C@H](c2ccncc2NC(=O)c2ccc(F)c3cc(N4CCCN(S(C)(=O)=O)CC4)cnc23)C1 [Example 124, N-(4-((1R,3S,5S)-3-Amino-5-methylcyclohexyl)pyridin-3-yl)-5-fluoro-3-(4-(methylsulfonyl)-1,4-diazepan-1-yl)quinoline-8-carboxamide] | ≤ 10 | ≤ 100 | ≤ 10
20 | CCc1cnc2c(C(=O)Nc3cnccc3[C@@H]3C[C@H](C)C[C@H](N)C3)ccc(F)c2c1 [Example 1, N-{4-[(1R,3S,5S)-3-Amino-5-methylcyclohexyl]pyridin-3-yl}-3-ethyl-5-fluoroquinoline-8-carboxamide] | ≤ 10 | 100 to 1000 | ≤ 10
21 | C[C@@H]1C[C@H](N)C[C@H](c2ccncc2NC(=O)c2ccc(F)c3cc(N4CC[C@H]4CO)cnc23)C1 [Example 123, N-(4-((1R,3S,5S)-3-Amino-5-methylcyclohexyl)pyridin-3-yl)-5-fluoro-3-((S)-2-(hydroxymethyl)azetidin-1-yl)quinoline-8-carboxamide] | ≤ 10 | ≤ 100 | ≤ 10
